Data taken from US20040171795A1, “Novel peptides” (priority 2000, published 2004).

Columns and labels:
[1] = Measurement of CD spectrum; assay type: physicochemical
Procedure: The peptide dissolved in 10 mM phosphate buffer (pH=7) containing 50 mM NaCl was evaluated for its CD spectrum in the presence and in the absence of 5 mM SDS by using a circular dichroism spectrophotometer (J-500A, manufactured by JASCO). The cell length was 1 mm. The measurement was conducted at 35° C. for 6 times in total. FIGS. 7 to 9 are respectively views showing mean residue ellipticity in CD spectroscopy of the peptide of SEQ ID NO:1, the peptide of SEQ ID NO:4 and the peptide of SEQ ID NO:16. As evident in FIGS. 7 to 9, the mean residue ellipticity obtained in the presence of SDS was the so called W curve and local minimums were found in the areas at the wavelength of 205 to 210 nm and 220 to 225 nm, and α-helix structure was thereby confirmed.

[2] = system: cell (Vero, T24 or A549 of Example 9; not given); assay: Nucleic acid-introducing ability, luciferase-expressing plasmid (procedure of Example 9); assay type: cell-based; settings: for ability of introducing the nucleic acid into a cell: procedure of Example 9, luciferase-expressing plasmid; for Nucleic acid-introducing ability: class of fluorescent count per 1 mg of protein per 1 second, highest of peptide 1.25, 2.5, 5 μM, plasmid 1 μg/mL
Text: A cell line established from monkey kidney (Vero cell) and a human bladder cancer cell (T24 cell) purchased from American Type Culture Collection (ATCC) and human lung cancer cell (A549 cell) purchased from Dainippon Pharmaceutical were inoculated on a 24 well culture plate (manufactured by NALGEN NUNC) at 1×10^5 cells/well. Vero cell and A549 cell were cultivated in DMEM (manufactured by Life Technologies Oriental) supplemented with 10% fetal bovine serum (hereinafter referred to as FBS, manufactured by NICHIREI), and T24 cell was cultivated in McCoy's 5a (manufactured by Life Technologies Oriental) supplemented with 10% FBS in 5% CO2 atmosphere at 37° C. for 24 hours. After removing the medium, opti-MEM (manufactured by Life Technologies Oriental) prepared to have the concentration of the luciferase-expressing plasmid prepared in Example 7 of 1 μg/mL and the concentration of the peptide prepared in Example 1 of 1.25, 2.5, or 5 μM was added, and the cells were cultivated for 5 hours. Next, in the case of Vero cell and A549 cell, the culture medium was replaced with DMEM supplemented with 10% FBS, and in the case of T24 cell, the medium was replaced with McCoy's 5a supplemented with 10% FBS, and cultivation was continued in 5% CO2 atmosphere and at 37° C. for another 24 hours. The luciferase activity expressed in the cell was then measured by the method instructed in luciferase assay system (manufactured by Promega). To be more specific, the cells were washed with phosphate-buffered saline (hereinafter referred to as PBS, manufactured by SIGMA), and the cells were lyzed with Passive Lysis Buffer attached to the kit. 20 μL of this cell lysate and 100 μL of the Luciferase Assay Reagent II attached to the kit was added to a fluorescence-measuring plate (Microlite™ 1 plate, manufactured by Dynatech), and after mixing, fluorescence was measured for 1 second by using a multilabel counter (ARVO™ SY1420 MULTILABEL COUNTER, manufactured by Wallac Beltold.
Concentration of the protein in the cell lysate was measured by mixing 8 μL of the cell lysate and 200 μL of the protein assay solution (manufactured by Biorad) with 792 μL of ultrapure water in a disposable cuvette (UV fluorescent cuvette A204X, manufactured by Funakoshi), allowing the mixture to stand for 5 minutes at room temperature, and measuring the absorption at 595 nm with a spectrophotometer (DU640, manufactured by Beckman). Bovine serum albumin (BSA) was used for the standard protein. By using the thus obtained results, count per 1 second per 1 mg of protein of the cell lysate was calculated to thereby use the count as the luciferase activity, and the highest count in the three conditions of different peptide concentration was designated the gene-introducing ability of the peptide.
It is to be noted that the nucleic acid-introducing ability was classified as described below on the bases of the fluorescent count per 1 mg of protein per 1 second (cps/mg protein).

[3] = Affinity by surface plasmon resonance (Biacore 2000), flow cell 2; assay type: binding; settings: SPR, HPA chip, 0.1 mg/mL BSA; compared with flow cell 1
Procedure: (§1) The specific affinity of the peptide for phosphatidyl serine was evaluated by means of surface plasmon resonance (SPR) using Biacore 2000 (manufactured by Biacore). To be more specific, phosphatidyl choline was immobilized on flow cell 1, and 50% of phosphatidyl serine and 50% of phosphatidyl choline were immobilized on flow cell 2 of HPA chip (manufactured by Biacore), and ability of the peptide to bind to the phospholipid was evaluated in the presence of 0.1 mg/mL BSA to thereby evaluate the affinity.

[4] = Affinity by surface plasmon resonance (Biacore 2000), flow cell 1; assay type: binding; settings: SPR, HPA chip, 0.1 mg/mL BSA
Procedure: as §1

Vero cell = assay: Storage stability of the complex with nucleic acid (luciferase activity); assay type: cell-based, monkey; settings: luciferase-expressing plasmid 2 μg/mL, peptide 5 μM; reagents per attached protocol
Procedure: Luciferase-expressing plasmid was introduced in Vero cell in accordance with the procedure described in Example 9 by using the opti-MEM prepared to have a concentration of the luciferase-expressing plasmid prepared in Example 7 of 2 μg/mL and a concentration of the peptide of SEQ ID NO:4 prepared in Example 1 of 5 μM to thereby measure the luciferase activity. The opti-MEM containing plasmid and peptide used were the one which had been prepared immediately before the gene introduction, and the one which had been prepared 1 week (7 days) in advance and stored at 4° C.
For the purpose of reference, gene-introducing activity of Lipofectin and LipofectAMINE 2000 (manufactured by Life Technologies Oriental), which are commercially available plasmid-introducing agents, were also evaluated by mixing these reagent with luciferase-expressing plasmid in accordance with the attached protocol, and evaluating their gene-introducing activity after storing at 4° C. for 1 week.

[5] = Measurement of turbidity in BSA; assay type: physicochemical; settings: BSA 1%, peptide 50 μM, absorbance at 600 nm
Procedure: The solutions were evaluated for their absorbance at a wavelength of 600 nm by using a spectrophotometer (DU640, manufactured by Beckman).

[6] = Affinity for phosphatidyl serine (EIA, inhibition of human Factor VIII binding); settings: class of IC50 for inhibiting human Factor VIII binding, 5% BSA
Procedure: The specific affinity of the peptide for phosphatidyl serine was evaluated by measuring activity of the peptide for inhibiting the binding of the human Factor VIII to phosphatidyl serine by using human Factor VIII which is known to bind to phosphatidyl serine but not to phosphatidyl choline in the presence of serum albumin. To be more specific, 100 μL of ethanol solution containing 10 μg/mL of phospholipids at a phosphatidyl serine (manufactured by SIGMA): phosphatidyl choline (manufactured by SIGMA) ratio of 3:7 was added to the wells of a 96 well plate (Immulon I, manufactured by Dynatech), and exsiccated by using a centrifugal evaporator (EC-95C, manufactured by Sakuma Seisakusho) at 40° C. for 40 minutes. 200 μL each of TBS (10 mM Tris-HCl (pH 7.4) containing 1% bovine serum albumin (BSA Fraction V, hereinafter referred to as BSA, manufactured by Seikagaku Corporation) and 0.9% (W/V) NaCl solution were added to each well, and the wells were blocked by allowing the plate to stand at 37° C. for 2.5 hours. After washing the plate with water, 100 μL of TBS solution supplemented with 5% BSA mixed with human Factor VIII (manufactured by American Diagnostica) at a final concentration 1 μg/mL and the peptide of predetermined dose prepared in Example 1 was added to each well, and the reaction was allowed to take place at 4° C. for 24 hours.
After the completion of the reaction, the human Factor VIII that became bound to the phosphatidyl serine was measured by enzyme immunoassay (EIA) in accordance with the general procedure described in a book (“Enzyme Immunoassay (3rd ed.)”, Eiji Ishikawa et al., Igaku-Shoin, 1987). To be more specific, the measurement was conducted by using anti-human Factor VIII mouse monoclonal antibody (ESH8, manufactured by American Diagnostica) for the primary antibody, horseradish peroxidase-labeled anti-mouse IgG antibody (P0260, manufactured by Daco) for the secondary antibody, and tetramethylbenzidine for the chromogenic substrate, and measuring the absorption at a wavelength of 450 nm by using a reference wavelength of 630 nm on a spectrophotometer (NJ-2100, manufactured by Intermed).
Intensity of the affinity of the peptide for the phosphatidyl serine was evaluated by using the value obtained by subtracting the absorption of the well having no human Factor VIII added thereto from the absorption of the well having only the human Factor VIII added thereto as the control value (100%), and designating the peptide concentration at which the value 0.5 was obtained when the value obtained by subtracting the absorption of the well having only the peptide added thereto from the absorption of the well having a mixture of the human Factor VIII and the peptide added thereto were divided by the control value as the IC50 value, and evaluating the intensity to be ++ when the IC50 value was up to 1 μM, and +when the intensity was more than 1 μM but not more than 10 μM. It is to be noted that the specific affinity was evaluated to be none when the intensity was 10 μM or more.

Substance | IC50 [6] | α-helix structure in CD spectrum in the presence of SDS ([1]; 5 mM SDS, 10 mM phosphate buffer pH 7, 50 mM NaCl, 35° C.) | ability of introducing the nucleic acid into a cell [2] | binding to flow cell 2 (50% phosphatidyl serine, 50% phosphatidyl choline) [3] | binding to flow cell 1 (phosphatidyl choline) [4] | α-helix structure in CD spectrum in the absence of SDS ([1]; aqueous solution solely containing an inorganic salt, pH 7, 35° C.) | Nucleic acid-introducing ability [2] | gene-introducing activity after storing the complex at 4° C. for 1 week, relative to freshly prepared complex (Vero cell) | OD 600 [5]
SEQ ID NO:25: comparative peptide, same amino acid composition as SEQ ID NO:1 but an utterly random amino acid sequence (TIRYRPSHQIRLRAVLHLWIRYRPSHQIRLRAVLHWS; synthetic peptide using an automatic peptide synthesizer) [reference compound] | – | no α-helix structure is found | neither the nucleic acid-introducing ability | no binding | no binding | – | – | – | –
SEQ ID NO: 4: peptide of SEQ ID NO:1 with one or two locations substituted in the 18 amino acid sequence (TRYLRIHPRSWLHQIALRLRYLRIHPRSWLHQIALRS; synthetic peptide using an automatic peptide synthesizer) | – | – | – | – | – | do not take α-helix structure | 4+ (10,000,000 or more) | substantially equivalent | –
SEQ ID NO: 8: peptide of SEQ ID NO:1 with one or two locations substituted in the 18 amino acid sequence (TRYLRIHPKSWVHQIALRLRYLKIHPRSWVHQIALRS; synthetic peptide using an automatic peptide synthesizer) | 1 to 10 µM | – | – | – | – | – | 3+ (1,000,000 to less than 10,000,000) | – | 0.01>
SEQ ID NO: 10: peptide of SEQ ID NO:1 with one or two locations substituted in the 18 amino acid sequence (TRSLRIHPRSWVHQIALRLRSLRIHPRSWVHQIALRS; synthetic peptide using an automatic peptide synthesizer) | 1 to 10 µM | – | – | – | – | – | 3+ (1,000,000 to less than 10,000,000) | – | 0.01>
SEQ ID NO: 17: peptide of SEQ ID NO:1 with one or two locations substituted in the 18 amino acid sequence (TRSLRIHPRLWVHQIALRLRSLRIHPRLWVHQIALRS; synthetic peptide using an automatic peptide synthesizer) | < 1 µM | – | – | – | – | – | 2+ (100,000 to less than 1,000,000) | – | 0.01>
SEQ ID NO: 19: peptide of SEQ ID NO:1 with three locations substituted in the 18 amino acid sequence; preferred peptide (TRYLRLHPRSWLHQLALRLRYLRLHPRSWLHQLALRS; synthetic peptide using an automatic peptide synthesizer) | < 1 µM | – | – | – | – | – | 4+ (10,000,000 or more) | – | 0.01>

Further lines, with some results ahead:

IC50 [6] | Substance | α-helix structure in CD spectrum in the presence of SDS ([1]; 5 mM SDS, 10 mM phosphate buffer pH 7, 50 mM NaCl, 35° C.) | ability of introducing the nucleic acid into a cell [2] | binding to flow cell 2 (50% phosphatidyl serine, 50% phosphatidyl choline) [3] | binding to flow cell 1 (phosphatidyl choline) [4] | α-helix structure in CD spectrum in the absence of SDS ([1]; aqueous solution solely containing an inorganic salt, pH 7, 35° C.) | Nucleic acid-introducing ability [2] | gene-introducing activity after storing the complex at 4° C. for 1 week, relative to freshly prepared complex (Vero cell) | OD 600 [5]
1 to 10 µM | SEQ ID NO: 11: peptide of SEQ ID NO:1 with one or two locations substituted in the 18 amino acid sequence (TRYLRIHPRLWVHQIALRLRYLRIHPRLWVHQIALRS; synthetic peptide using an automatic peptide synthesizer) | – | – | – | – | – | 3+ (1,000,000 to less than 10,000,000) | – | 0.01>
< 1 µM | SEQ ID NO: 15: peptide of SEQ ID NO:1 with one or two locations substituted in the 18 amino acid sequence (TRYLRIRPRSWVRQIALRLRYLRIRPRSWVRQIALRS; synthetic peptide using an automatic peptide synthesizer) | – | – | – | – | – | 2+ (100,000 to less than 1,000,000) | – | 0.01>
< 1 µM | SEQ ID NO: 23: deletion mutant of the peptide of SEQ ID NO:1 (TIHPRSWVHQIALRLRYLRIHPRSWVHQIAS; synthetic peptide using an automatic peptide synthesizer) | – | had the ability of introducing the nucleic acid into a cell | – | – | – | 2+ (100,000 to less than 1,000,000) | – | 0.01>
